The text below walks through data of US20130028987A1, “Method of treating psoriasis” (priority 2011, published 2013).

The test system of this test is phosphorylase kinase. Nature of the test: inhibition of phosphorylase kinase activity. It is filed as biochemical. The following applies: findings of the instant inventor; no experiment described.

For the compound `COc1cc(/C=C/C(=O)CC(=O)/C=C/c2ccc(O)c(OC)c2)ccc1O` [Curcumin], the “inhibition of phosphorylase kinase” value is “selective and non-competitive inhibitor of phosphorylase kinase”.
